Assay results as given in PMC5510229, “BCAT1 controls metabolic reprogramming in activated human macrophages and is associated with inflammatory diseases” (Nature Communications, 2017).

Tests used:
[1] = system: human monocyte-derived macrophages (hMDMs); experiment: Itaconate and citrate measurement by GC/MS in hMDMs; format: cell-based
Procedure: Figure 1 BCAT1 expression and inhibition in human macrophages. […] (b) Chemical structure of ERG240 and leucine. (c) Enzymatic activity of recombinant human BCAT1 and BCAT2 in presence of ERG240. (d) Relative expression of IRG1, HIF1A and IL1B measured by qRT-PCR in control, ERG240-treated (20 mM, 3 h), LPS treated (100 ng ml^−1, 3 h), and LPS+ERG240 treated (LPS, 100 ng ml^−1; ERG240, 20 mM for 3 h) hMDMs. ns, non-significant. All expression values are normalized to those obtained for HPRT gene expression. n=3 healthy donor hMDMs were used in each group. […]
For itaconate, cells pellets containing 1.5 × 10^6 hMDMs were quenched with 400 μl of methanol, previously chilled at −20 °C. […] After a brief centrifugation, derivatized metabolites were transferred into clean GC/MS vials and analysed for the presence of itaconic acid (itaconate) using a 7890A GC System (Agilent Technologies) equipped with an Agilent J&W DB-5ms column (30 m, 0.25 mm, 0.25 μm), connected to an 5975C Triple-Axis MS Detector (Agilent Technologies) and outfitted with an autosampler. […] The amount of itaconate present in the sample was determined after peak integration. […] The GC/MS was performed by Biocrates (BIOCRATES Life Sciences AG, Innsbruck, Austria) and the citrate quantification was performed using their commercially available Kit plates, according to the manufacturer’s instructions. […]

[2] = Blood brain barrier crossing
Text: NCOMMS-16-23550_Point by Point Responses Papathanassiu et al.
6. It would be interesting to know why the half -life in animals is very low. Again, is the drug metabolized by the organism? (see also point 3).
Authors’ reply. The pharmacokinetic study that determined the half -life of the drug in mice […]
ERG240 is completely absorbed and not subject to first -pass metabolism. Since the drug is structurally a leucine analogue, it is likely to be uptaken by the ubiquitously expressed amino acid transporter LAT1. In that light, the low half -life of the drug is related to its complete and swift absorption by various sites rather to a phase I or II metabolic reaction. ERG240 is also […]
preferentially in the brain. […]
metabolism of the drug in human macrophages, please see the response to point 3, which […]
7. Leucine is degraded to acetyl -Coa and acetoacetate both fueling cellular acetyl -Coa pools. Does decreased activity of BCAT1 impact cellular acetyl -Coa and citrate levels? Itaconate synthesis is a sink for citrate and diverts carbon away from the TCA cycle. […]
have measured citrate levels in 4 donors following LPS and LPS + ERG240 treatment for 3 hours by GC-MS. […]
Itaconate levels measured by GC/MS were further confirmed in si-BCAT1 and si-Control MDMs from independent donors (n=4, left panel). […]

CC(=O)C(C)CCC(=O)O (stereo not shown) [ERG240]
citrate levels by GC/MS ([1]; LPS 3 h 100 ng/ml + ERG240 vs LPS): further significantly increased | itaconate levels measured by GC/MS ([1]; LPS 8 h 100 ng ml^−1, ERG240 20 mM): decreased itaconate levels | accumulation in the brain [2]: does not accumulate | crossing of the blood brain barrier [2]: capable of crossing the blood brain barrier
